Test results reported in patent US6653296B1, “Antiretroviral enantiomeric nucleotide analogs” (Institute of Organic Chemistry and Biochemistry of the …, priority 1992, dated 2003).
Where two headings read alike, the source gives them in different places. Marks after values point to notes of the source that are not given here.

How the values were obtained:
MT-4 cells = assay: MT-4 cell viability (trypan blue); assay type: cell-based, human
Method: The activity of the compounds against HIV-1 and HIV-2 induced cytopathicity was examined in human lymphocyte MT-4 cells. […]. The infected cell cultures were then incubated at 37° C. for 5 days in a humidified CO2-controlled incubator. Then, the cytopathicity of the virus was examined by determination of MT-4 cell viability by trypan blue dye staining. The results are summarized in Table 1 in comparison with the data on the prototype compounds.

C3H/3T3 cells = assay: Microscopic alteration of C3H/3T3 cell culture morphology; assay type: cell-based, murine; conditions: concentration that results in a microscopic alteration of the C3H/3T3 cell culture morphology
[1] = tested on: Moloney murine sarcoma virus (MSV); assay: MSV-induced tumor formation and death in newborn NMRI mice, intraperitoneal administration; assay type: in vivo; conditions: for Mean day of animal death: observed 20 days
Method: Two gram newborn NMRI mice were injected intramuscularly in the left hind leg with 50 μl of 250-fold diluted stock preparation of Moloney murine sarcoma virus. […] Another group of mice (20 animals) was administered RPMI-1640 medium as placebo. All compounds were solubilized in RPMI-1640 medium. The mice were observed daily for 20 days and the day of tumor initiation and the day of animal death was recorded for each animal. Statistical analyses were performed by calculating the standard deviation.

retrovirus = assay: Anti-retrovirus activity in vitro, conclusions on Table 1 (HIV-1, HIV-2, MSV); assay type: cell-based; conditions: in vitro, summary of Table 1
Method: The cells were seeded in 1-ml-wells of a 48-well microtiter plate and exposed to 80 PFU (plaque forming units) for 60-90 minutes. Then, the virus was removed and culture medium containing appropriate concentrations of the test compounds were added (1 ml per well). At day 6 post infection, MSV-induced transformation of the cell culture was examined microscopically.

HIV-1 = HIV-1 induced cytopathicity in MT-4 cells; assay type: cell-based, human immunodeficiency virus type 1; conditions: MT-4 cells
Method: (§1) The activity of the compounds against HIV-1 and HIV-2 induced cytopathicity was examined in human lymphocyte MT-4 cells. […] The infected cell cultures were then incubated at 37° C. for 5 days in a humidified CO2-controlled incubator. Then, the cytopathicity of the virus was examined by determination of MT-4 cell viability by trypan blue dye staining.

HIV-2 = HIV-2 induced cytopathicity in MT-4 cells; assay type: cell-based, human immunodeficiency virus type 2; conditions: MT-4 cells
Method: as §1

[2] = tested on: Moloney murine sarcoma virus (MSV); assay: MSV-induced tumor formation in NMRI mice, oral administration; assay type: in vivo
Method: Three-week-old NMRI mice (about 10 grams body weight) were injected intramuscularly in the left hind leg with 50 μl of 20-fold diluted stock preparation of Moloney murine sarcoma virus. Starting 2-4 hours before virus infection, six animals received an orally administered test compound twice a day at 100 mg/kg(total dose) daily for five subsequent days. The control (placebo) group consisted of 14 animals. The experiment was evaluated as described in Example 35.

herpes viruses = conditions: racemic mixtures, prior art; cited from earlier work
[3] = twice a day, 100 mg/kg total daily dose for five days

In the case of `C[C@H](Cn1cnc2c(N)ncnc21)OCP(=O)(O)O` [(R)-PMPA, 9-(R)-(2-Phosphonomethoxypropyl)adenine], the “toxicity to the cells” value (MT-4 cells) was “non-toxic”, the MIC (C3H/3T3 cells) was over 100 µg/mL and the “inhibiting tumor initiation and prolonging the life-span of MSV-infected mice (in words)” value ([1]; i.p.) was “highly effective”. The “Mean day of animal death” value ([1]; single i.p. dose 2 mg/kg) was 12.6 ± 1.26 days, the “Mean day of animal death” value ([1]; single i.p. dose 5 mg/kg) was 14.4 ± 0.47 days and the “Mean day of animal death” value ([1]; single i.p. dose 10 mg/kg) was 18.3 ± 1.10 days. For the same molecule, the “percentage of MSV-infected mice still alive at day 20 post infection” value ([1]; single i.p. dose 20 mg/kg) was 100%, the “Mean day of animal death” value ([1]; single i.p. dose 20 mg/kg) was over 20 days and the “percentage of MSV-infected mice still alive at day 20 post infection” value ([1]; single i.p. dose 50 mg/kg) was 100%. The “Mean day of animal death” value ([1]; single i.p. dose 50 mg/kg) was over 20 days, the “protection against MSV-induced tumor development (in words)” value ([1]; single i.p. dose of 50 mg/kg) was “full protection” and the “increasing the mean day of tumor initiation and animal death (in words)” value ([1]; single i.p. dose of 10-50 mg/kg) was “markedly effective”. For the same molecule, the “concentration markedly inhibitory to retrovirus replication” value (retrovirus) was 1 to 2 µg/mL.
For `C[C@H](Cn1cnc2c(N)nc(N)nc21)OCP(=O)(O)O` [(R)-PMPDAP, 9-(R)-(2-Phosphonomethoxypropyl)-2,6-diaminopurine], the “selectivity index (ratio cytotoxic dose/antivirally active dose) for HIV-1” value (HIV-1) was > 2 000, the “selectivity index (ratio cytotoxic dose/antivirally active dose) for HIV-2” value (HIV-2) was > 2 000 and the “toxicity to the cells” value (MT-4 cells; at 100 μg/ml) was “non-toxic”. For the same molecule, the MIC (C3H/3T3 cells) was over 100 µg/mL, the “in vivo anti-MSV activity relative to (R)-PMPA” value ([1]; i.p.) was “five-fold superior over (R)-PMPA” and the “inhibiting tumor initiation and prolonging the life-span of MSV-infected mice (in words)” value ([1]; i.p.) was “highly effective”. The “percentage of MSV-infected mice still alive at day 20 post infection” value ([1]; single i.p. dose 2 mg/kg) was 70%, the “percentage of MSV-infected mice without tumor at day 20 post infection” value ([1]; single i.p. dose 2 mg/kg) was 36% and the “Mean day of animal death” value ([1]; single i.p. dose 2 mg/kg) was 15 days. The “percentage of MSV-infected mice still alive at day 20 post infection” value ([1]; single i.p. dose 5 mg/kg) was 90%, the “Mean day of animal death” value ([1]; single i.p. dose 5 mg/kg) was 16.5 days and the “percentage of MSV-infected mice still alive at day 20 post infection” value ([1]; single i.p. dose 10 mg/kg) was 90%. For the same molecule, the “Mean day of animal death” value ([1]; single i.p. dose 10 mg/kg) was 18.5 days, the “percentage of MSV-infected mice still alive at day 20 post infection” value ([1]; single i.p. dose 20 mg/kg) was 95% and the “Mean day of animal death” value ([1]; single i.p. dose 20 mg/kg) was 18 days. The “protection of the animals against MSV-induced tumor development” value ([1]; single i.p. dose of 10-20 mg/kg) was 90-95%, the “increase of the mean day of tumor initiation” value ([2]; 100 mg/kg/day) was 50% and the “Mean day of tumor initiation” value [2, 3] was 7.5 ± 1.0*^) day. For the same molecule, the “Number of mice developing tumor (%)” value [2, 3] was 67%.
For `CC(Cn1cnc2c(=O)[nH]c(N)nc21)OCP(=O)(O)O` (stereo not drawn) [PMPG], the “antiherpetic effect (in words)” value (herpes viruses) is given as “due to its substantial cytotoxicity”.
